Legend:
Assay in all cases: CDK Kinase Inhibition Assay
Conditions in all cases: 25 °C
[1] = target: Calcium/calmodulin-dependent protein kinase type II subunit alpha (Rattus norvegicus, UniProt P11275)
[2] = target: cAMP-dependent protein kinase catalytic subunit alpha (Bos taurus, UniProt P00517)
[3] = target: Cyclin-dependent kinase 2/G1/S-specific cyclin-E1 (Homo sapiens, UniProt P24941)

Sequence of Calcium/calmodulin-dependent protein kinase type II subunit alpha (P11275 whole entry): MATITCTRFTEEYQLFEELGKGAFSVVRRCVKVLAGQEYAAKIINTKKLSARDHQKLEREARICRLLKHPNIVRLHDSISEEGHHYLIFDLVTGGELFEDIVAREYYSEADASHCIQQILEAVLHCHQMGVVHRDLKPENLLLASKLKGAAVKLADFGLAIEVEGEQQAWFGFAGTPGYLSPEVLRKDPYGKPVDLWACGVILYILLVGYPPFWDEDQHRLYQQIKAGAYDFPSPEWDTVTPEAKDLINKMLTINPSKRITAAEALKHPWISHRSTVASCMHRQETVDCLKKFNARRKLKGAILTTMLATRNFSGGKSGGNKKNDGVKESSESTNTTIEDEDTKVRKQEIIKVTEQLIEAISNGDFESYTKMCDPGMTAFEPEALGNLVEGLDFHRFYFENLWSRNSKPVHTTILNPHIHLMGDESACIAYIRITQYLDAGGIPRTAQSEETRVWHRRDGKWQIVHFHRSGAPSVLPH

IC50 [1] | IC50 [2] | SMILES | IC50 [3]
> 20 µM | > 20 µM | COc1ccc2c3c4c(c5c(ccc6ccn(C)c65)c3n(CCCN3CCSCC3)c2c1)C(=O)NC4=O [6-methoxy-18-methyl-3-[3-(thiomorpholin-4-yl)propyl]-3,13,18-triazahexacyclo[14.7.0.0^{2,10}.0^{4,9}.0^{11,15}.0^{17,21}]tricosa-1(16),2(10),4(9),5,7,11(15),17(21),19,22-nonaene-12,14-dione] | –
> 20 µM | > 20 µM | COc1ccc2c3c4c(c5c(ccc6ccn(C)c65)c3n(CCCN3CCOCC3)c2c1)C(=O)NC4=O [6-methoxy-18-methyl-3-[3-(morpholin-4-yl)propyl]-3,13,18-triazahexacyclo[14.7.0.0^{2,10}.0^{4,9}.0^{11,15}.0^{17,21}]tricosa-1(16),2(10),4(9),5,7,11(15),17(21),19,22-nonaene-12,14-dione] | –

Second part, the compound before the results:

SMILES | IC50 [1] | IC50 [2] | IC50 [3]
COc1ccc2c3c4c(c5c(ccc6ccn(C)c65)c3n(CCN3CCCCC3)c2c1)C(=O)NC4=O [6-methoxy-18-methyl-3-[2-(piperidin-1-yl)ethyl]-3,13,18-triazahexacyclo[14.7.0.0^{2,10}.0^{4,9}.0^{11,15}.0^{17,21}]tricosa-1(16),2(10),4(9),5,7,11(15),17(21),19,22-nonaene-12,14-dione] | > 20 µM | > 20 µM | –
CCc1ccc2c(c1)[nH]c1c3ccc4ccn(C)c4c3c3c(c21)C(=O)NC3=O [6-ethyl-18-methyl-3,13,18-triazahexacyclo[14.7.0.0^{2,10}.0^{4,9}.0^{11,15}.0^{17,21}]tricosa-1(16),2(10),4(9),5,7,11(15),17(21),19,22-nonaene-12,14-dione] | – | > 20 µM | 0.36 µM
COc1ccc2c3c4c(c5c(ccc6ccn(C)c65)c3n(CCCN3CCC(O)CC3)c2c1)C(=O)NC4=O [3-[3-(4-hydroxypiperidin-1-yl)propyl]-6-methoxy-18-methyl-3,13,18-triazahexacyclo[14.7.0.0^{2,10}.0^{4,9}.0^{11,15}.0^{17,21}]tricosa-1(16),2(10),4(9),5,7,11(15),17(21),19,22-nonaene-12,14-dione] | – | – | 2.1 µM
Cn1ccc2ccc3c4[nH]c5cccc(CO)c5c4c4c(c3c21)C(=O)NC4=O [8-(hydroxymethyl)-18-methyl-3,13,18-triazahexacyclo[14.7.0.0^{2,10}.0^{4,9}.0^{11,15}.0^{17,21}]tricosa-1(16),2(10),4(9),5,7,11(15),17(21),19,22-nonaene-12,14-dione] | – | > 20 µM | –
